Literature values in patent publication US11331266B1, “Antioxidant free, norepinephrine bitartrate injection in amber glass vials” (Medefil, Inc., priority 2020, dated 2022).

Conditions: literature, Int. J. Toxicol. 2002; 21 Suppl 2:19-94

For `COc1ccc(O)c(C(C)(C)C)c1` [butylated hydroxyl anisole], the organ damage is listed as “some renal and hepatic damage”.
